Assay results reported in article PMC3401643 (2009).

Molecular target: T1, retinoid X receptor α (RXRα) (Homo sapiens, UniProt P19793)
T1 sequence (P19793 223-462): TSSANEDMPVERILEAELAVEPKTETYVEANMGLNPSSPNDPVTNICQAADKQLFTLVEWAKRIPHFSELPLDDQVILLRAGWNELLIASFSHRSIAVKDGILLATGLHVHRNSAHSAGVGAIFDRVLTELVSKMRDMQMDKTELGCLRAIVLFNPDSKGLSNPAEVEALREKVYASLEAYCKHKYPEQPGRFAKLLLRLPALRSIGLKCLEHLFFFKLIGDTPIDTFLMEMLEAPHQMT
Format: binding

With `C[C@@H](C(=O)O)c1ccc(-c2ccccc2)c(F)c1` [R-Flur, (R)-flurbiprofen] the IC50 was about 75 µM.
